“And” between values parts separate entries of the source, which are not always exact repeats. Equal entries are not always repeated.
Assays:
[1] = target: T1, human dopamine transporter (Homo sapiens, UniProt Q01959); experiment: [3H]Dopamine uptake inhibition, hDAT cells; assay type: cell-based; settings: for Uptake to Binding Ratio (Kiuptake/Kibinding): ratio of Kiuptake to Kibinding at hDAT
T1 construct: expressed in transfected cells

[2] = target: T2, cocaine binding site of the human dopamine transporter (Homo sapiens, UniProt Q01959); experiment: [3H]CFT binding at the cocaine binding site, hDAT cells
T2 construct: expressed in transfected cells

Male Long-Evans rats = experiment: Inhibition of nicotine self-administration in male Long-Evans rats; assay type: in vivo, rat; settings: 10, 20 and 30 mg/kg i.p. 15 minutes before 60 minute session; nicotine 30 μg/kg/infusion; FIG. 1
Description: Male Long-Evans rats were trained to self-administer nicotine on a fixed ratio schedule of reinforcement, as described by Corrigall et al., Psychopharmacology, Vol. 104, No. 2, pp. 171-176 (1991) and Corrigall et al., Psychopharmacology, Vol. 107, Nos. 2-3, pp. 285-289 (1992). In brief, male Long-Evans rats were food deprived for a short period of time (24-48 hours) and trained to press a lever in an operant responding chamber on an FR-1 schedule of food reinforcement. Once trained, each rat was surgically prepared with a chronic intravenous catheter implanted into the jugular vein. The rats were allowed 1 week to recover from surgery.
After 1 week, nicotine self-administration studies were initiated on an FR-1 with a 60 second signaled time-out following each infusion. During time-out, responding on the lever had no scheduled consequence. Nicotine self-administration sessions were 60 minutes in duration. Each nicotine infusion contained 30 μg of nicotine/kg rat and were delivered in a volume of 54 μl over an infusion duration of 0.3 seconds. 15 minutes before the self-administration sessions, the rats were pre-treated intraperitoneally with (R)-(+)-α,α-diphenyl-2-pyrrolidinemethanol at doses of 10, 20 and 30 mg/kg.

[3] = tested on: alcohol-preferring (P) line of rats; experiment: Inhibition of ethanol intake in alcohol-preferring rats; assay type: in vivo, rat; settings: 30 mg/kg i.p.
Description: The effect of systemic administration of (R)-(+)-α,α-diphenyl-2-pyrrolidinemethanol on ethanol intake in the alcohol-preferring (P) line of rats was performed as previously described by Panocka et al., Pharm. Biochem. and Behavior, 1995, 52, 2, 255-259, and Murphy et al., Alcohol, 1985, 2, 349-352. In brief, (R)-(+)-α,α-diphenyl-2-pyrrolidinemethanol (30 mg/kg i.p.) was tested in female P rats (n=8) given daily 1 hour scheduled access to a 10% (v/v) ethanol solution. A within-subject design was used where (R)-(+)-α,α-diphenyl-2-pyrrolidinemethanol treatments were tested once per week. Baseline ethanol drinking consisted of the mean of the 3 days prior to testing in which saline injections were given. (R)-(+)-α,α-diphenyl-2-pyrrolidinemethanol or saline, administered i.p. in 1 ml/kg volumes, were injected 10-15 minutes prior to ethanol access. Twenty-four hour water and daily body weights were recorded to assess non-specific drug effects. Results were analyzed using paired t-tests with baseline and test day values serving as the independent variables. Ethanol intake was recorded as amount of solution consumed (mls).

[4] = individual rats P31-P40 (b249-b258 in order)

T2 sequence (Q01959 whole entry): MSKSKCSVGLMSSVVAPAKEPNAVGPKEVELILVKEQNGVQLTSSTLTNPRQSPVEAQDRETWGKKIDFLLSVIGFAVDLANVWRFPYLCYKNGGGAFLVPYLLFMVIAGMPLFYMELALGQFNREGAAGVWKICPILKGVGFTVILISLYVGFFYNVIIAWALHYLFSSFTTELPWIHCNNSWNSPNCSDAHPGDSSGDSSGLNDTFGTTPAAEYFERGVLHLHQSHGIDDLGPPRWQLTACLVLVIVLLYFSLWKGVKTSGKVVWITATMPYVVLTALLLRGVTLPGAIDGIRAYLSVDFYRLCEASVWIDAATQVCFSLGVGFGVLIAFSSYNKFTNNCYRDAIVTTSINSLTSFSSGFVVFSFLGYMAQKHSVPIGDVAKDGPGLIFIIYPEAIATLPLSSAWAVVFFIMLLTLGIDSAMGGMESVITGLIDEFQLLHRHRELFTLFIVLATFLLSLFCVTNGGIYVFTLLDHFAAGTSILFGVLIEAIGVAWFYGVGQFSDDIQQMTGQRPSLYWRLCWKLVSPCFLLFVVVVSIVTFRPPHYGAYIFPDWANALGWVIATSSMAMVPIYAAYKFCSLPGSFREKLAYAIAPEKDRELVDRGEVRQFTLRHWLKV
T1 sequence (Q01959 whole entry): as above

SMILES	Ki [1] [nM]	Uptake to Binding Ratio (Kiuptake/Kibinding) [1]	Ki [2] [nM]	nicotine self-administration (Male Long-Evans rats)	reduction of ethanol consumption ([3]; 1 hour access period, vs saline baseline, p<0.05)	effect on water consumption ([3]; 24 hours following administration)	Post-drug Water 24 hr ([3]; Means of rats P31-P40) [mL]	Post-drug Weight ([3]; Means of rats P31-P40) [g]	Test Day Ethanol 1 hr (g/kg) ([3]; Means of rats P31-P40)	Test Day Ethanol 1 hr (ml) ([3]; Means of rats P31-P40) [mL]	effect on body weights ([3]; P rats)	1 hour ethanol consumption ([3]; female P rats, 10% (v/v) ethanol, mean ± S.E.M., saline baseline 8.2±0.8 mls, p<0.05) [mls]	24 hour water intake ([3]; female P rats, mean ± S.E.M., saline baseline 28±2.2 mls) [mls]	24 hour body weights ([3]; female P rats, mean ± S.E.M., saline baseline 310±6.1 g) [g]	Post-drug Water 24 hr [3, 4]	Post-drug Weight [3, 4]	Test Day Ethanol 1 hr (g/kg) [3, 4]	Test Day Ethanol 1 hr (ml) [3, 4]
Cc1cc(C(O)(c2ccc(F)c(C)c2)[C@@H]2CCCN2)ccc1F [Compound 4, (S)-α,α-Bis(3-methyl-4-fluorophenyl)-2-pyrrolidinemethanol]	440	1.69	260	–	–	–	–	–	–	–	–	–	–	–	–	–	–	–
OC(c1ccccc1)(c1ccccc1)[C@@H]1CCCN1 [Compound 2, (S)-(-)-α,α-diphenyl-2-pyrrolidinemethanol]	1650	4.12	400	–	–	–	–	–	–	–	–	–	–	–	–	–	–	–
CCCN1CCC[C@H]1C(O)(c1ccccc1)c1ccccc1 [Compound 3, (S)-(-)-1-propyl-α,α-diphenyl-2-pyrrolidinemethanol]	10300	3.12	3300	–	–	–	–	–	–	–	–	–	–	–	–	–	–	–
OC(c1ccccc1)(c1ccccc1)[C@H]1CCCN1 [Compound 1, (R)-(+)-α,α-diphenyl-2-pyrrolidinemethanol]	170	4.25	40	dose-dependently attenuated	approximately 45%	no effect	25	300	1.2	4.5	not altered	4.5±1.2	25±2.1	300 ± 6.2	23 mL and 26 mL and 28 mL and 32 mL and 18 mL and 12 mL	329 g and 291 g and 294 g and 305 g and 290 g and 297 g and 312 g and 263 g and 323 g	1.9 g/kg and 0.3 g/kg and 0.5 g/kg and 2.4 g/kg and 1.0 g/kg and 0.8 g/kg and 0 g/kg	8 mL and 7 mL and 1 mL and 2 mL and 10 mL and 9 mL and 4 mL and 3 mL and 0 mL
